Source: patent EP4786462A1, “PYRIDONE COMPOUNDS AND PREPARATION METHOD THEREFOR, AND APPLICATION” (Shenzhen Salubris Pharmaceuticals Co., Ltd., priority 2023, dated 2025)

Experiments:
[1] = Pharmacokinetic experiment in rats (iv and PO administration); format: in vivo; settings: male, rat, plasma, SD rats, 5 mg/kg; for AUC(0-t): read-out: AUC0-24h
Excerpt: Polyethylene glycol 400 (lot number R22040588, Shanghai Shaoyuan Reagent Co., Ltd.), DMSO (lot number 20200319, Guangdong Guanghua Sci-Tech Co., Ltd.), Sodium Chloride Physiological Solution (lot number 2011110727, Chenxin Pharmaceutical Co., Ltd.). LC-MS instrument (Thermo Fisher Ultimate 3000 UPLC, TSQ QUANTUM ULTRA triple quadrupole mass spectrometer, AB SCIEX 5500+ QTARP).
SD rats: Male, 180-250 g, purchased from Guangdong Vital River Laboratory Animal Technology Co., Ltd.
The test compound powder was accurately weighed and completely dissolved in DMSO. PEG-400 was added, vortexed and sonicated to mix, then sodium chloride physiological solution was added, vortexed and sonicated to mix to form a 0.5 mg/mL solution (DMSO:PEG-400:NS = 5:60:35, V/V/V). For oral gavage administration, the dose was 10 mL/kg; for intravenous administration, the dose was 2 mL/kg.
After intravenous or oral gavage administration to rats, venous blood (200 µL) was collected at 5 min (not collected for oral gavage administration), 15 min, 30 min, 1 h, 2 h, 5 h, 7 h, and 24 h into EDTA-K2-anticoagulated EP tubes. The samples were centrifuged at 10000 rpm for 2 min, and the plasma was collected and stored at -80 °C until analysis.
A certain amount of the test compound was accurately weighed and dissolved in DMSO to 2 mg/mL as a stock solution. An appropriate volume of the compound stock solution was accurately transferred and diluted with acetonitrile to prepare a series of standard solutions. 4 µL of each standard solution was accurately transferred, and 36 µL of blank plasma was added, vortexed to mix, to prepare plasma samples equivalent to plasma concentrations of 1, 3, 5, 10, 30, 100, 300, 1000, 3000 ng/mL. Each concentration was analyzed in duplicate to establish a standard curve. 30 µL of plasma was taken, and 200 µL of an acetonitrile solution containing internal standard propranolol (5 ng/mL) was added. After vortex mixing, the samples were centrifuged at 4000 rpm for 10 min, and the supernatant was taken for LC-MS analysis. The LC-MS detection conditions were as follows: Column: YMC-Triart C18, 50×2.1 mm, S-3µm, 12 nm.
Mobile phase A: water (0.1% formic acid), mobile phase B: acetonitrile, flow rate: 0.5 mL/min, gradient elution as shown in Table 2 below: Table 2
After detecting plasma concentrations by LC-MS, pharmacokinetic parameters in rats after administration were calculated using a non-compartmental model with WinNonlin 6.1 software. Table 3: Pharmacokinetic Parameters of the Compound of the Present Disclosure in Rats (iv and PO Administration)

[2] = target: T1, hERG channel (Homo sapiens, UniProt Q12809); assay: Effect on hERG current in hERG-HEK293 cells (automated patch-clamp); format: cell-based; settings: 30 µM compound, peak tail current vs 0.3% DMSO
T1 construct: expressed in transfected cells
T1 sequence (Q12809 whole entry): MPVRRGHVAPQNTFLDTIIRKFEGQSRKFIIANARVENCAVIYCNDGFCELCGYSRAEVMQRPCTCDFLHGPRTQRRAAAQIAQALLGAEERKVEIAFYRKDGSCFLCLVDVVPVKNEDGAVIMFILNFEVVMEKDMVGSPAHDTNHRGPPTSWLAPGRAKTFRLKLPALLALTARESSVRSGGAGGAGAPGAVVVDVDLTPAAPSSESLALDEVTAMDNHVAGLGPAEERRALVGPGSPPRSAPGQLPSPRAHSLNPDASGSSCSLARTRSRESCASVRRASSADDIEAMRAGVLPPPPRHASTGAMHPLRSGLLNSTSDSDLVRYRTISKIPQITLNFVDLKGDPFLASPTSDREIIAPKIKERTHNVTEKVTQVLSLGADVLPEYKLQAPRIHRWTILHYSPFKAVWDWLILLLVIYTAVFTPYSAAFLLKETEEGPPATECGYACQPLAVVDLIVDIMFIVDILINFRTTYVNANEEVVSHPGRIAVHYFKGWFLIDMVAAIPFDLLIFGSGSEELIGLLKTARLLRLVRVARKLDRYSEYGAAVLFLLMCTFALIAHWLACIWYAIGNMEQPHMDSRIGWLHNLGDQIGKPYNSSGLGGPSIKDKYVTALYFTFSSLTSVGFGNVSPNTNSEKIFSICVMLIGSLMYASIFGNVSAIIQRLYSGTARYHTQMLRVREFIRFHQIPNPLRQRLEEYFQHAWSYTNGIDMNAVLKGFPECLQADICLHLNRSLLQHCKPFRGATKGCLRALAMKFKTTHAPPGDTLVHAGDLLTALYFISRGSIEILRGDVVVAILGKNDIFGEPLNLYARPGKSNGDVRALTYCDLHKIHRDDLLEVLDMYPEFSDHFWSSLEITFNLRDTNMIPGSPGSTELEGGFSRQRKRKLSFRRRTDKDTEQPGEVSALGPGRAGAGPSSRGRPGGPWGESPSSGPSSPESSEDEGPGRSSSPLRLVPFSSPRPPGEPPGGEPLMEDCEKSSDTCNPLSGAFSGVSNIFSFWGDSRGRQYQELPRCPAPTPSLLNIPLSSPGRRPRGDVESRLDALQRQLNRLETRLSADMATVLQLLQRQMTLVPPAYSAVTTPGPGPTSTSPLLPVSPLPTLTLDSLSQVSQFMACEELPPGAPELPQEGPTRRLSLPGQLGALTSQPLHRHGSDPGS

Row | AUC(0-t) [1] | SMILES | hERG Inhibition (%) [2] | also measured
1 | 31400 ng·h/mL | O=c1c(F)cccn1-c1ccc(N[C@H]2CC[C@H](Nc3ncc(OC(F)F)cn3)C2)nc1 [Example A14, 6'-(((1S,3S)-3-((5-(difluoromethoxy)pyrimidin-2-yl)amino)cyclopentyl)amino)-3-fluoro-2H-[1,3' -bipyridin]-2-one] | – | half-life [1]: 4.42 h
2 | – | O=c1ccccn1-c1ccc(N[C@H]2CC[C@H](Nc3nc4cccnc4s3)C2)nc1 [Example C15] | <50% | –
3 | 41400 ng·h/mL | O=c1cccnn1-c1cnc(N[C@H]2CC[C@H](Nc3nc4cccnc4s3)C2)c(F)c1 [Example C34] | <50% | –
4 | – | Cn1c(=O)n(-c2ccc(N[C@H]3CC[C@H](Nc4nc5ccccn5n4)C3)nc2)c2cc(C#N)ccc21 [Example C64] | <50% | –
5 | – | O=c1c(Cl)ccnn1-c1cnc(N[C@H]2CC[C@H](Nc3nc4ccccn4n3)C2)c(F)c1 [Example C67] | <50% | –
6 | – | COc1ccn2nc(N[C@H]3CC[C@H](Nc4ccc(-n5ccccc5=O)cn4)C3)nc2c1 [Example C8, 6'-(((1S,3S)-3-((7-methoxy-[1,2,4]triazolo[1,5-a]pyridin-2-yl)amino)cyclopentyl)amino)-2H-[1,3 '-bipyridin]-2-one] | <50% | –
7 | – | O=c1c(Cl)ccnn1-c1ccc(N[C@H]2CC[C@H](Nc3nc4ccccn4n3)C2)nc1 [Example C65] | <50% | –
8 | – | O=c1cccnn1-c1ccc(N[C@H]2CC[C@H](Nc3nc4ccccn4n3)C2)nc1 [Example C43] | <50% | –
9 | 60100 ng·h/mL | CC(O)c1cccn(-c2ccc(N[C@H]3CC[C@H](Nc4ncc(OC(F)F)cn4)C3)nc2)c1=O (stereo partly drawn) [Example A35, 6'-(((1S,3S)-3-((5-(difluoromethoxy)pyrimidin-2-yl)amino)cyclopentyl)amino)-3-(1-hydroxyethyl)-2H-[1,3'-bipyridin]-2-one] | – | 30 uM-hERG Inhibition [2]: 33.81; half-life [1]: 14.9 h
10 | 70100 ng·h/mL | O=c1cccnn1-c1cnc(N[C@H]2CC[C@H](Nc3ncc(OC(F)F)cn3)C2)c(F)c1 [Example A28, 2-(6-(((1S,3S)-3-((5-(difluoromethoxy)pyrimidin-2-yl)amino)cyclopentyl)amino)-5-fluoropyridin-3-yl)pyridazin-3(2H)-one] | – | –
11 | 29400 ng·h/mL | O=c1c(Cl)cccn1-c1ccc(N[C@H]2CC[C@H](Nc3ncc(OC(F)F)cn3)C2)nc1 [Example A9, 3-chloro-6'-(((1S,3S)-3-((5-(difluoromethoxy)pyrimidin-2-yl)amino)cyclopentyl)amino)-2H-[1,3 '-bipyridin]-2-one] | – | –
12 | – | O=c1ccccn1-c1cnc(N[C@H]2CC[C@H](Nc3nc4nccnc4s3)C2)c(F)c1 [Example C19] | <50% | –
13 | 32000 ng·h/mL | COc1cc(-n2ccccc2=O)cnc1N[C@H]1CC[C@H](Nc2ncc(OC(F)F)cn2)C1 [Example A27, 6'-(((1S,3S)-3-((5-(difluoromethoxy)pyrimidin-2-yl)amino)cyclopentyl)amino)-5'-methoxy-2H-[1,3'-bipyridin]-2-one] | – | 30 uM-hERG Inhibition [2]: 40.72; half-life [1]: 3.89 h
14 | – | O=c1ccccn1-c1ccc(N[C@H]2CC[C@H](Nc3nc4ccccn4n3)C2)nc1 [Example C7, 6'-(((1S,3S)-3-([1,2,4]triazolo[1,5-a]pyridin-2-ylamino)cyclopentyl)amino)-2H-[1,3'-bipyridin]-2-one] | <50% | –
15 | – | O=c1c(C2CC2)cccn1-c1ccc(N[C@H]2CC[C@H](Nc3nc4cccnc4[nH]3)C2)nc1 [Example C58] | <50% | –
16 | 37700 ng·h/mL | O=c1ccccn1-c1cnc(N[C@H]2CC[C@H](Nc3nc4cccnc4s3)C2)c(F)c1 [Example C22] | <50% | –
17 | 39700 ng·h/mL | O=c1cccnn1-c1ccc(N[C@H]2CC[C@H](Nc3nc4cccnc4s3)C2)nc1 [Example C35] | <50% | –
18 | – | O=c1cccnn1-c1cnc(N[C@H]2CC[C@H](Nc3nc4cccnc4o3)C2)c(F)c1 [Example C48] | <50% | –
19 | – | O=c1ccc2cccnc2n1-c1ccc(N[C@H]2CC[C@H](Nc3nc4cccnc4s3)C2)nc1 [Example C84] | <50% | –

Row | AUC(0-t) [1] | SMILES | hERG Inhibition (%) [2] | also measured
20 | – | O=c1cccnn1-c1cnc(N[C@H]2CC[C@H](Nc3nc4cccnc4[nH]3)C2)c(F)c1 [Example C69] | <50% | –
21 | 53000 ng·h/mL | O=c1cccnn1-c1cnc(N[C@H]2CC[C@H](Nc3nc4ccccn4n3)C2)c(F)c1 [Example C47, 2-(6-(((1S,3S)-3-([1,2,4]triazolo[1,5-a]pyridin-2-ylamino)cyclopentyl)amino)-5-fluoropyridin-3-yl)pyridazin-3(2H)-one] | <50% | –
22 | – | O=c1c(Cl)cccn1-c1cnc(N[C@H]2CC[C@H](Nc3nc4cccnc4[nH]3)C2)c(F)c1 [Example C61] | <50% | –
23 | – | O=c1c(Cl)cccn1-c1cnc(N[C@H]2CC[C@H](Nc3nc4ccccn4n3)C2)c(F)c1 [Example C36] | <50% | –
24 | 40300 ng·h/mL | O=c1ccccn1-c1cnc(N[C@H]2CC[C@H](Nc3nc4ccccn4n3)C2)cn1 [Example C9, 1-(5-(((1S,3S)-3-([1,2,4]triazolo[1,5-a]pyridin-2-ylamino)cyclopentyl)amino)pyrazin-2-yl)pyridi n-2(1H)-one] | – | –
25 | 43800 ng·h/mL | O=c1ccccn1-c1cnc(N[C@H]2CC[C@H](Nc3ncc(OC(F)F)cn3)C2)c(F)c1 [Example A17, 6'-(((1S,3S)-3-((5-(difluoromethoxy)pyrimidin-2-yl)amino)cyclopentyl)amino)-5'-fluoro-2H-[1,3 '-bipyridin]-2-one] | – | half-life [1]: 2.97 h
26 | – | O=c1ccccn1-c1cnc(N[C@H]2CC[C@H](Nc3nc4cccnc4o3)C2)c(F)c1 [Example C53] | <50% | –
27 | – | O=c1ccccn1-c1ccc(N[C@H]2CC[C@H](Nc3nc4ncccn4n3)C2)nc1 [Example C30] | <50% | –
28 | – | C#Cc1ccc2nc(N[C@H]3CC[C@H](Nc4ccc(-n5ccccc5=O)cn4)C3)nn2c1 [Example C26] | <50% | –
29 | 42500 ng·h/mL | N#Cc1cccn(-c2ccc(N[C@H]3CC[C@H](Nc4ncc(OC(F)F)cn4)C3)nc2)c1=O [Example A13, 6'-(((1S,3S)-3-((5-(difluoromethoxy)pyrimidin-2-yl)amino)cyclopentyl)amino)-2-oxo-2H-[1,3'-bipyridine]-3-carbonitrile] | – | half-life [1]: 6.02 h
30 | – | O=C(O)c1cccn(-c2ccc(N[C@H]3CC[C@H](Nc4ncc(OC(F)F)cn4)C3)nc2)c1=O [Example A22, 6'-(((1S,3S)-3-((5-(difluoromethoxy)pyrimidin-2-yl)amino)cyclopentyl)amino)-2-oxo-2H-[1,3'-bipyridine]-3-carboxylic acid] | – | 30 uM-hERG Inhibition [2]: 19.56
31 | 39800 ng·h/mL | O=c1ccccn1-c1cnc(N[C@H]2CC[C@H](Nc3nc4ccccn4n3)C2)c(F)c1 [Example C17, 6'-(((1S,3S)-3-([1,2,4]triazolo[1,5-a]pyridin-2-ylamino)cyclopentyl)amino)-5'-fluoro-2H-[1,3'-bipyridin]-2-one] | <50% | –
32 | – | COc1ccc2nc(N[C@H]3CC[C@H](Nc4ccc(-n5ccccc5=O)cn4)C3)nn2c1 [Example C21] | <50% | –
33 | – | O=c1ccccn1-c1cnc(N[C@H]2CC[C@H](Nc3ncc(OC(F)F)cn3)C2)c(CO)c1 [Example A30] | – | 30 uM-hERG Inhibition [2]: 33.75
34 | – | O=c1ccccn1-c1cnc(N[C@H]2CC[C@H](Nc3nc4cccnc4[nH]3)C2)c(F)c1 [Example C56] | <50% | –
35 | – | O=c1ccc2cccnc2n1-c1ccc(N[C@H]2CC[C@H](Nc3nc4ccccn4n3)C2)nc1 [Example C71] | <50% | –
36 | – | Cc1ccc2nc(N[C@H]3CC[C@H](Nc4ccc(-n5ccccc5=O)cn4)C3)nn2c1 [Example C32] | <50% | –
37 | – | O=c1cccnn1-c1ccc(N[C@H]2CC[C@H](Nc3nc4cccnc4[nH]3)C2)nc1 [Example C66] | <50% | –
